Tests used:
[1] = test system: extracellular Aβ (Aβ1-38, Aβ1-40, Aβ1-42); assay: Extracellular Aβ production in organotypic hippocampal slice cultures (MSD sandwich immunoassay); format: cell-based, mice
Procedure: Organotypic hippocampal slice cultures (OHSC) were prepared from newborn (P0-P3) C57B16 or for transgenic 3×Tg-AD mice and were cultured according the interface method (Gogolla et al., 2006). OHSC were kept for 7 days in vitro (div) at 37° C. in a humidified atmosphere (5% CO2) before treatment. Medium was changed every other day.
For acute exposure, neurons were exposed to various concentration of Aftin-5 for 18 hours for acute exposure. […]
All Aβ peptides assays in the samples were performed using V-PLEX Aβ Peptide Panel 1 (4G8) Kit (MSD Technologies_K15199E-1). All plates were read on the SECTOR Imager 2 400 (MSD Technologies). The Aβ peptides assay is based on the principle of the sandwich immunoassay. All assays have followed strictly the protocol kit and all reagents were from Meso Scale Discovery. Briefly, a 96-well plate having 4 spots pre-coated with the corresponding antibodies is provided by MSD Technology (4-spot MULTI-SPOT plates). Before adding the samples, a first saturation step is required. Once the plate is satured and washed, 25 μL of sample (or calibrators) per well are loaded, then 25 μL of the Detection Antibody solution (MSD SULFO-TAG). The plate is incubated for 2 hours. At the end of the incubation, the plate is washed and then a chemical solution (Read buffer 2×) is added allowing electrochemiluminescence. After a short incubation (5 min) at room temperature, the plate is read on the SECTOR Imager 2400. The instrument measures the intensity of the light electrochemiluminescence.

InsR (insulin-receptor) = assay: Insulin receptor mRNA in OHSC (RT-qPCR); format: cell-based, mice; settings: 50 μM for 10 days, P<0.05
Procedure: FIG. 12. Plots illustrating the effect of Aftin-5 on relative mRNA expression levels of murine insulin-like growth factor-1 receptor (IGF1-R; (A)) and murine insulin receptor (Insr; (B)) in organotypic hippocampal slice cultures (OHSC). OHSC culture media of OHSC were replaced by incubation medium containing Aftin-5 (50 μM; A50) or vehicle (0.1% DMSO; Veh). 10 days later, total mRNA in lysate was isolated and purified, cDNAs were then synthesized from […] of total mRNA. cDNAs were amplified by quantitative RT-PCR and the relative expression of specific genes was normalized to the housekeeping gene HPRT1 (2^−ΔCt) Mann-Whitney tests were performed and *p<0.05 indicates significant differences between Aftin-5 and control conditions. Data expressed as means+/−SEM from q=3 independent experiments with n=4-6 inserts/condition and 10 slices/insert. […]
The impact of Aftin-5 on gene expression of different biomarkers was determined by measuring mRNA levels of selected BDNF, CREB, PS95, INS Receptor/IGF-1 receptor, IL-1β, IL-6 in OHSC treated chronically with Aftin-5 or in a total brain from mice exposed to Aftin-5 at either 8 or 30 mg/Kg. […] Threshold cycles (Ct) of target gene and cyclophilin A (Ppia−control housekeeping gene) were recorded and gene expression was calculated as 2^−ΔΔCt(ΔΔCt=ΔCttreated−ΔCtcontrol, ΔCt=Cttarget−CtPpia). […]

[2] = test system: short-term memory (working memory); assay: Y-maze spontaneous alternation test; format: in vivo, C57Bl/6J mice; settings: WT mice, 8 mg/kg subcutaneous, 28 days
Procedure: FIG. 13. Plots illustrating the effect of Aftin-5 on short-term memory (working memory) in Y maze. C57B1/6J mice were exposed sub-cutaneously to Aftin-5 at 8 mg/kg (A8) or vehicle (DMSO/PEG; Veh) during 28 days through an Alzet pump. 3-4 weeks later, cognitive abilities were assessed by the means of the total number of arm entries (A) and the percentage of alternation (B). Mann-Whitney tests were performed and **p<0.01 indicates significant differences between Aftin-5 and control conditions. Data expressed as means+/−SEM with n=15 mice/condition. The spontaneous alternation test (Y maze) is a test to evaluate the short-term memory (working memory) of the animal. This test is carried out in a Y-maze with arms customized by different forms; squares (A), triangles (B) and lines (C). The mouse is placed in one of the arms for 8 min. In this test, the mouse is free to explore spontaneously the three arms of the Y-maze (FIG. 1). During the session, the number of entries of each arm of the Y-maze is counted. At the end of the session, the number of possibility (number of total entries in the arms) and the number of spontaneous alternation are calculated. An alternation is defined by consecutive entries in the three different arms (A-B-C). A mouse with a normal phenotype will tend to explore the novelty. […]

in vitro = settings: rat
[3] = chronic treatment of OHSC (10 days)

modulation of Aβ1-42/Aβ1-40 ratio induced by Aftin-5 in presence of γ-secretase inhibitor BMS ([1]; OHSC, Aftin-5 50 μM with BMS (10 μM), 10 days): no changes
InsR-mRNA (InsR (insulin-receptor)): increased dramatically
Papp at 60 min, 10 μM (in vitro): ~35 ×10⁻⁶ cm/s
Structure (SMILES): CC[C@H](CO)Nc1nc(N(C)c2ccccc2)c2ncn(C(C)C)c2n1 [Aftin-5]
Aβ1-38 [1, 3]: decrease
Aβ1-40 [1, 3]: remained unchanged
concentration ratio Aβ1-42/Aβ1-40 [1, 3]: slight but significant increase
production of Aβ1-42 ([1]; chronic treatment of OHSC (10 days), P<0.0001): increase
spatial memory in Y-maze [2]: improved spatial memory
